Data taken from publication PMC10119930, “Dual Molecules Targeting 5-HT6 and GABA-A Receptors as a New Approach to Combat Depression Associated with Neuroinflammation” (ACS Chemical Neuroscience, 2023).

Columns and labels:
[1] = Brain tissue stability assay; type: in vitro ADME; settings: brain homogenate in Tris-HCl buffer
Method: The quantitative HPLC analyses were acquired using Waters Alliance e2695 separations module (Waters, Milford, CT, USA) containing 2998 photodiode array (PDA), a detector (Waters, Milford, CT, USA), and the SpeedROD RP-18e 50–4.6 mm column (Merck, KGaA, Darmstadt, Germany). The temperature of the column was preserved at 30 °C. […] Each sample was injected at a volume of 10 μL in triplicate. […] The stock solutions were mixed with methanol and diluted, resulting in various solutions with concentrations ranging from 1.0 to 0.125 μg/mL. These solutions were then utilized to generate calibration curves by plotting AUC versus concentration in μg/mL. The examined molecules (2 mg) were dissolved in 1 mL of Dulbecco’s phosphate buffered saline (DPBS). The mixture was then continuously agitated at 22 °C for 24 h using a thermoshaker. Following this period, the mixtures were filtered through a cellulose acetate syringe filter (with a pore size of 0.22 μm), moved to a chromatographic vial, and analyzed. To quantify the investigated compounds, the areas beneath their respective peaks on DAD chromatograms were employed. Solubility was calculated using the calibration curves. Chemical stability assay: Stock solution of 16 in DMSO (10 mg/mL) was used. Next, 25 μL of stock solution was mixed with 975 μL of PBS (Dulbecco’s phosphate-buffered saline, Sigma, Poland). […] HPLC analyses were used to quantify the percentage of molecules that remained at each time point relative to the 0 min time point. Brain tissue stability assay: […] Then, 50 μL of the stock solution was combined with 50 μL of ice-cold 50 mM Tris-HCl buffer (pH 7.4) and 150 μL of brain homogenate (suspended in 20 volumes of 50 mM Tris-HCl buffer, ice cold, pH 7.4). The mix was then incubated at 37 °C and quenched at several time points. To terminate the reaction mixture, 250 μL of the appropriate reaction mixture was mixed with 1000 μL of MeCM in the Eppendorf Tube. Following 10 min of shaking (1500 rpm), samples were centrifuged (10 000 rpm, 10 min, 4 °C) and the acquired supernatant was collected. Before conducting HPLC analysis, the supernatant was filtered via a cellulose acetate syringe filter with a pore size of 0.45 μm and then transferred to a chromatographic vial. HPLC analysis was used to determine the percentage of the tested molecule remaining at each time point, relative to the 0 min time point. Plasma stability assay was performed as described previously.[45] Frozen rat plasma (Wistar) was thawed. […] The samples were collected at relative time points. The reaction was terminated by adding 1200 of μL acetonitrile/methanol mixture (50:50, v/v). The samples were centrifuge at 25 000 rpm for 10 min. HPLC analysis was used to determine the percentage of the tested molecule remaining at each time point relative to the 0 min time point. All the experiments were performed in duplicate.

[2] = target: muscimol site of the GABA-A receptor; test: Radioligand binding assay for GABA-A receptor ([3H]muscimol displacement, rat brain homogenate); settings: competitive replacement of [3H]muscimol; ±S.E.M.
Method: The study was acquired according to the earlier protocols.[39] The rats’ brains were homogenized and prepared accurately according to the previous protocol.[39] On the day of the study, brain homogenates were thawed at room temperature and “diluted” in 20 volumes of ice-cold 50 mM Tris-HCl buffer (pH 7.4) and centrifuged (20.000g, 30 min, 0–4 °C). The assay was performed directly on 96-well microplates, which contained 50 mM Tris-HCl buffer (pH 7.4) in a total volume of 300 μL. Reaction mix included 240 μL of the brain tissue suspension, 30 μL of [^3H]-muscimol, and 30 μL solution of tested compounds (administrated at various concentrations: 10^–10–10^–5 M). […] The 96-well microplates containing the reaction mix were incubated for 10 min at 0 °C, followed by rapid filtration over glass fiber filters FilterMate B (PerkinElmer, USA) using the Harvester-96 MACH III FM (Tomtec, USA). The filter mats were dried using a microwave and then placed inside a plastic bag (PerkinElmer, USA). After that, they were soaked in 10 mL of Ultima Gold MV liquid scintillation cocktail (PerkinElmer, USA). […] Ki values were estimated according to the Cheng and Prusoff equation. The study was performed in duplicates. The statistical analysis was performed using (GraphPad Prism, version 4.0, San Diego, CA, USA).

5-HT6 receptor = 5-HT6 receptor (Homo sapiens, UniProt P50406); test: Functional assay for 5-HT6 receptor, antagonist mode (aequorin, CHO-K1 cells); type: cell-based; parameters: expressed in transfected cells; host or cells: CHO-K1 (co-expressing mitochondrially targeted aequorin and G protein α16); settings: ±S.E.M., read-out: 5-HT6 R KB
Method: The studies were acquired according to previous protocols.[41] All the examined compounds (novel and the reference) were dissolved in DMSO (1 mM) and diluted accordingly using the assay buffer, directly in 96-well microplate. The recombinant CHO-K1 cells expressing human GPCR, mitochondrially targeted aequorin, and the promiscuous G protein α16 specific for 5-HT6 were used for the functional assay. The cells were thawed and suspended in the appropriate buffer containing DMEM/HAM’s F12 with 0.1% protease free BSA and were then centrifuged. After adding coelenterazine h to a final concentration of 5 μM, the cell pellet was resuspended in the buffer. The cell suspension was incubated at 16 °C for 16 h while being protected from light, gently shaken, and diluted with assay buffer to a concentration of 5000 cells/mL. Following that, 50 μL of the cell suspension was introduced to preloaded white opaque 96-well microplates containing the tested molecules. This was done using the automatic injectors integrated into the radiometric and luminescence plate counter MicroBeta2 LumiJET (PerkinElmer, USA). The light emission resulting from calcium mobilization was monitored for a duration of 60 s. For examination of the antagonistic properties of tested molecule, following 30 min of incubation, the reference agonist was administrated and the light emission was detected.

Chain of 5-HT6 receptor (P50406 whole entry): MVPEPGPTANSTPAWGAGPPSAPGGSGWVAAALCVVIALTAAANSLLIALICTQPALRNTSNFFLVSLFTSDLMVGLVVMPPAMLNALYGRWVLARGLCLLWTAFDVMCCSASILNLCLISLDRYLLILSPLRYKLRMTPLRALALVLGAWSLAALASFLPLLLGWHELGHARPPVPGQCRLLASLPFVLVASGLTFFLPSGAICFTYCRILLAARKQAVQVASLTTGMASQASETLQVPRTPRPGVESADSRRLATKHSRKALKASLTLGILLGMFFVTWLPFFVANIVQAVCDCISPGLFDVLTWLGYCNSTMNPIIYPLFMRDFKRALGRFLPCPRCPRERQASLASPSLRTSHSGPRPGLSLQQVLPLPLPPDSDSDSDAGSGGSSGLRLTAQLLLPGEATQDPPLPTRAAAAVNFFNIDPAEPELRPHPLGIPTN

With `Cc1c(OCc2ccccc2)cccc1N1CCN(CCOC(=O)CCCN)CC1.Cl.Cl` [Compound 16, 1-(2-((4-Ammoniobutanoyl)oxy)ethyl)-4-(3-(benzyloxy)-2-methylphenyl)piperazin-1-ium Dichloride] the “% compound remaining (brain homogenate)” value ([1]; 0 min) was 100 ± 0.3%, the “% compound remaining (brain homogenate)” value ([1]; 15 min) was 97.81 ± 2.1% and the “% compound remaining (brain homogenate)” value ([1]; 30 min) was 92.56 ± 1.9%. The “% compound remaining (brain homogenate)” value ([1]; 60 min) was 87.12 ± 3.2%, the “% compound remaining (brain homogenate)” value ([1]; 120 min) was 49.73 ± 2.4% and the “% compound remaining (brain homogenate)” value ([1]; 240 min) was 25.34 ± 1.6%. The Ki [2] was 147 ± 12.7 nM and the Kb (5-HT6 receptor) was 11.9 ± 0.1 nM.
